Data from PubChem BioAssay AID2060483 (Molecular Pharmacology Branch, DTP, NCI, 2025).

Test system: K24384-001-R-PDC complex spheroids, viability
Test: Anticancer human tumor K24384-001-R-PDC patient-derived pancreatic adenocarcinoma cell line growth inhibition [GQUAD]
Details: for IC50: curve of first compound; for viability, T/C: stronger effect = lower value
Method in brief: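 Tumor cells were grown as complex spheroids with HUVEC endothelial cells and mesenchymal stem cells as stroma. G-quadruplex stabilizers were combined with targeted agents over half-log dilutions from near the clinical Cmax, or from 10 microM.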

[1] = second compound 0.0316 µM, first compound 0.0316 µM
[2] = second compound 0.0316 µM, first compound 0.1 µM
[3] = second compound 0.0316 µM, first compound 0.316 µM
[4] = second compound 0.0316 µM, first compound 1 µM
[5] = second compound 0.0316 µM, first compound 3.16 µM
[6] = second compound 0.0316 µM, first compound 10 µM
[7] = second compound 0.1 µM, first compound 0.0316 µM
[8] = second compound 0.1 µM, first compound 0.1 µM
[9] = second compound 0.1 µM, first compound 0.316 µM
[10] = second compound 0.1 µM, first compound 1 µM
[11] = second compound 0.1 µM, first compound 3.16 µM
[12] = second compound 0.1 µM, first compound 10 µM
[13] = second compound 0.316 µM, first compound 0.0316 µM
[14] = second compound 0.316 µM, first compound 0.1 µM
[15] = second compound 0.316 µM, first compound 0.316 µM
[16] = second compound 0.316 µM, first compound 1 µM
[17] = second compound 0.316 µM, first compound 3.16 µM
[18] = second compound 0.316 µM, first compound 10 µM
[19] = second compound 1 µM, first compound 0.0316 µM
[20] = second compound 1 µM, first compound 0.1 µM
[21] = second compound 1 µM, first compound 0.316 µM
[22] = second compound 1 µM, first compound 1 µM
[23] = second compound 1 µM, first compound 3.16 µM
[24] = second compound 1 µM, first compound 10 µM
[25] = second compound 3.16 µM, first compound 0.0316 µM
[26] = second compound 3.16 µM, first compound 0.1 µM
[27] = second compound 3.16 µM, first compound 0.316 µM
[28] = second compound 3.16 µM, first compound 1 µM
[29] = second compound 3.16 µM, first compound 3.16 µM
[30] = second compound 3.16 µM, first compound 10 µM
[31] = second compound 10 µM, first compound 0.0316 µM
[32] = second compound 10 µM, first compound 0.1 µM
[33] = second compound 10 µM, first compound 0.316 µM
[34] = second compound 10 µM, first compound 1 µM
[35] = second compound 10 µM, first compound 3.16 µM
[36] = second compound 10 µM, first compound 10 µM
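Also: spheroids exposed to compounds for seven days.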

Question: For `CC1COCCN1c1cc(C2(S(C)(=N)=O)CC2)nc(-c2ccnc3[nH]ccc23)n1` (stereo unspecified) + Cc1[nH]c2ccc(F)cc2c1-c1nc2c3cccnc3c3ncccc3c2[nH]1, which IC50 (second compound 0.0316 µM) is on record?
Answer: 1610 nM

Question: And the IC50 (second compound 0.1 µM)?
Answer: 1710 nM

Question: What about the IC50 (second compound 0.316 µM) of the same compound?
Answer: 1500 nM

Question: And the IC50 (second compound 1 µM)?
Answer: 1990 nM

Question: What about the IC50 (second compound 3.16 µM) of the same compound?
Answer: 2040 nM

Question: And the IC50 (second compound 10 µM)?
Answer: 1250 nM

Question: And the viability, T/C [1]?
Answer: 82.5%

Question: What about the viability, T/C [2] of the same compound?
Answer: 94.6%

Question: And the viability, T/C [3]?
Answer: 112%

Question: And the viability, T/C [4]?
Answer: 64.2%

Question: And the viability, T/C [5]?
Answer: 37.2%

Question: And the viability, T/C [6]?
Answer: 22.6%

Question: And the viability, T/C [7]?
Answer: 87.1%

Question: And the viability, T/C [8]?
Answer: 95.7%

Question: What about the viability, T/C [9] of the same compound?
Answer: 107%

Question: What about the viability, T/C [10] of the same compound?
Answer: 66.6%

Question: What about the viability, T/C [11] of the same compound?
Answer: 34.6%

Question: And the viability, T/C [12]?
Answer: 27.5%

Question: What about the viability, T/C [13] of the same compound?
Answer: 81.6%

Question: What about the viability, T/C [14] of the same compound?
Answer: 85.5%

Question: And the viability, T/C [15]?
Answer: 101%

Question: What about the viability, T/C [16] of the same compound?
Answer: 58.8%

Question: And the viability, T/C [17]?
Answer: 38.5%

Question: And the viability, T/C [18]?
Answer: 29.2%

Question: What about the viability, T/C [19] of the same compound?
Answer: 87.5%

Question: And the viability, T/C [20]?
Answer: 84.1%

Question: What about the viability, T/C [21] of the same compound?
Answer: 87.1%

Question: What about the viability, T/C [22] of the same compound?
Answer: 63.6%

Question: What about the viability, T/C [23] of the same compound?
Answer: 41.5%

Question: What about the viability, T/C [24] of the same compound?
Answer: 31.6%

Question: What about the viability, T/C [25] of the same compound?
Answer: 71.6%

Question: What about the viability, T/C [26] of the same compound?
Answer: 72.6%

Question: What about the viability, T/C [27] of the same compound?
Answer: 72.9%

Question: And the viability, T/C [28]?
Answer: 61%

Question: What about the viability, T/C [29] of the same compound?
Answer: 43%

Question: What about the viability, T/C [30] of the same compound?
Answer: 26%

Question: What about the viability, T/C [31] of the same compound?
Answer: 56.5%

Question: What about the viability, T/C [32] of the same compound?
Answer: 64.4%

Question: And the viability, T/C [33]?
Answer: 58.5%

Question: And the viability, T/C [34]?
Answer: 54.3%

Question: And the viability, T/C [35]?
Answer: 32.5%

Question: And the viability, T/C [36]?
Answer: 16.5%

Question: For `COc1cc(C2c3cc4c(cc3C(OC3OC5COC(C)OC5C(O)C3O)C3COC(=O)C23)OCO4)cc(OC)c1O` (stereo unspecified) + Cc1[nH]c2ccc(F)cc2c1-c1nc2c3cccnc3c3ncccc3c2[nH]1, which IC50 (second compound 0.0316 µM) is on record?
Answer: 3000 nM

Question: And the IC50 (second compound 0.1 µM)?
Answer: 1320 nM

Question: What about the IC50 (second compound 0.316 µM) of the same compound?
Answer: 1940 nM

Question: And the IC50 (second compound 1 µM)?
Answer: 2780 nM

Question: And the IC50 (second compound 3.16 µM)?
Answer: 1860 nM

Question: What about the IC50 (second compound 10 µM) of the same compound?
Answer: 688 nM

Question: And the viability, T/C [1]?
Answer: 104%

Question: What about the viability, T/C [2] of the same compound?
Answer: 96%

Question: And the viability, T/C [3]?
Answer: 73.3%

Question: What about the viability, T/C [4] of the same compound?
Answer: 71%

Question: What about the viability, T/C [5] of the same compound?
Answer: 47.1%

Question: What about the viability, T/C [6] of the same compound?
Answer: 33.5%

Question: What about the viability, T/C [7] of the same compound?
Answer: 90%

Question: What about the viability, T/C [8] of the same compound?
Answer: 94.7%

Question: And the viability, T/C [9]?
Answer: 68.8%

Question: And the viability, T/C [10]?
Answer: 57%

Question: And the viability, T/C [11]?
Answer: 37.5%

Question: And the viability, T/C [12]?
Answer: 35.9%

Question: What about the viability, T/C [13] of the same compound?
Answer: 113%

Question: And the viability, T/C [14]?
Answer: 99.5%

Question: What about the viability, T/C [15] of the same compound?
Answer: 75.6%

Question: And the viability, T/C [16]?
Answer: 59.3%

Question: What about the viability, T/C [17] of the same compound?
Answer: 44.1%

Question: And the viability, T/C [18]?
Answer: 35.2%

Question: What about the viability, T/C [19] of the same compound?
Answer: 85%

Question: And the viability, T/C [20]?
Answer: 80.7%

Question: And the viability, T/C [21]?
Answer: 68.7%

Question: And the viability, T/C [22]?
Answer: 67.6%

Question: And the viability, T/C [23]?
Answer: 44.5%

Question: And the viability, T/C [24]?
Answer: 38.1%

Question: What about the viability, T/C [25] of the same compound?
Answer: 83.2%

Question: And the viability, T/C [26]?
Answer: 71.8%

Question: And the viability, T/C [27]?
Answer: 67.6%

Question: What about the viability, T/C [28] of the same compound?
Answer: 69.6%

Question: And the viability, T/C [29]?
Answer: 33.2%

Question: And the viability, T/C [30]?
Answer: 30.8%

Question: And the viability, T/C [31]?
Answer: 55.4%

Question: And the viability, T/C [32]?
Answer: 59.5%

Question: What about the viability, T/C [33] of the same compound?
Answer: 53.1%

Question: What about the viability, T/C [34] of the same compound?
Answer: 47.7%

Question: And the viability, T/C [35]?
Answer: 24.5%

Question: And the viability, T/C [36]?
Answer: 19.8%

Question: How did the IC50 (second compound 0.0316 µM) turn out when `CCc1c2c(nc3ccc(O)cc13)-c1cc3c(c(=O)n1C2)COC(=O)[C@]3(O)CC` + Cc1[nH]c2ccc(F)cc2c1-c1nc2c3cccnc3c3ncccc3c2[nH]1 was run?
Answer: 9.41 nM

Question: And the IC50 (second compound 0.1 µM)?
Answer: 11.4 nM

Question: And the IC50 (second compound 0.316 µM)?
Answer: 9.43 nM

Question: What about the IC50 (second compound 1 µM) of the same compound?
Answer: 11.7 nM

Question: And the IC50 (second compound 3.16 µM)?
Answer: 6.05 nM

Question: What about the IC50 (second compound 10 µM) of the same compound?
Answer: 4.02 nM

Question: What about the viability, T/C (second compound 0.0316 µM, first compound 0.000999 µM) of the same compound?
Answer: 96.3%

Question: And the viability, T/C (second compound 0.0316 µM, first compound 0.00316 µM)?
Answer: 62.2%

Question: What about the viability, T/C (second compound 0.0316 µM, first compound 0.00999 µM) of the same compound?
Answer: 53.5%

Question: And the viability, T/C [1]?
Answer: 38.9%

Question: What about the viability, T/C (second compound 0.0316 µM, first compound 0.0999 µM) of the same compound?
Answer: 29.3%

Question: What about the viability, T/C [3] of the same compound?
Answer: 27.2%

Question: What about the viability, T/C (second compound 0.1 µM, first compound 0.000999 µM) of the same compound?
Answer: 79.8%

Question: And the viability, T/C (second compound 0.1 µM, first compound 0.00316 µM)?
Answer: 72.7%

Question: And the viability, T/C (second compound 0.1 µM, first compound 0.00999 µM)?
Answer: 51.5%

Question: And the viability, T/C [7]?
Answer: 33.1%

Question: And the viability, T/C (second compound 0.1 µM, first compound 0.0999 µM)?
Answer: 31.3%

Question: What about the viability, T/C [9] of the same compound?
Answer: 21.4%

Question: What about the viability, T/C (second compound 0.316 µM, first compound 0.000999 µM) of the same compound?
Answer: 72%

Question: And the viability, T/C (second compound 0.316 µM, first compound 0.00316 µM)?
Answer: 61.3%

Question: And the viability, T/C (second compound 0.316 µM, first compound 0.00999 µM)?
Answer: 47.5%

Question: What about the viability, T/C [13] of the same compound?
Answer: 41.8%

Question: What about the viability, T/C (second compound 0.316 µM, first compound 0.0999 µM) of the same compound?
Answer: 28.3%

Question: And the viability, T/C [15]?
Answer: 23.7%

Question: What about the viability, T/C (second compound 1 µM, first compound 0.000999 µM) of the same compound?
Answer: 70.6%

Question: And the viability, T/C (second compound 1 µM, first compound 0.00316 µM)?
Answer: 57.1%

Question: What about the viability, T/C (second compound 1 µM, first compound 0.00999 µM) of the same compound?
Answer: 51.5%

Question: What about the viability, T/C [19] of the same compound?
Answer: 42.2%

Question: And the viability, T/C (second compound 1 µM, first compound 0.0999 µM)?
Answer: 39.9%

Question: And the viability, T/C [21]?
Answer: 26.8%

Question: And the viability, T/C (second compound 3.16 µM, first compound 0.000999 µM)?
Answer: 65%

Question: What about the viability, T/C (second compound 3.16 µM, first compound 0.00316 µM) of the same compound?
Answer: 55.5%

Question: What about the viability, T/C (second compound 3.16 µM, first compound 0.00999 µM) of the same compound?
Answer: 41.3%

Question: And the viability, T/C [25]?
Answer: 38.1%

Question: And the viability, T/C (second compound 3.16 µM, first compound 0.0999 µM)?
Answer: 30.8%

Question: And the viability, T/C [27]?
Answer: 13.7%

Question: And the viability, T/C (second compound 10 µM, first compound 0.000999 µM)?
Answer: 60.4%

Question: And the viability, T/C (second compound 10 µM, first compound 0.00316 µM)?
Answer: 48.9%

Question: And the viability, T/C (second compound 10 µM, first compound 0.00999 µM)?
Answer: 43.8%

Question: What about the viability, T/C [31] of the same compound?
Answer: 28.4%

Question: And the viability, T/C (second compound 10 µM, first compound 0.0999 µM)?
Answer: 15.1%

Question: What about the viability, T/C [33] of the same compound?
Answer: 11%
